# Results from US20050197350A1, “Novel quinoline, tetrahydroquinazoline, and pyrimidine derivatives and methods of treatment related to the use thereof” (TAISHO PHARMACEUTICAL CO., LTD., priority 2003, published 2005).
# Tested on: MCH receptors
# Test: MCH receptor activity class (method not given)
# Settings: activity class 1-3: percent of control at 10^-7 M or IC50
row,Structure (SMILES),class
1,CN(C)c1nc(N[C@H]2CC[C@@H](CNC(=O)OCCOCc3ccccc3)CC2)nc2c1CCCC2 [compound 1599],3 (Class 3 The value of percent of control at 10^−7 M was more than 60% or the value of IC50 was more than 200 nM.)
2,CN(C)c1nc(N[C@H]2CC[C@@H](CNC(=O)OCC(C)(C)C)CC2)nc2c1CCCC2 [compound 1600],3 (Class 3 The value of percent of control at 10^−7 M was more than 60% or the value of IC50 was more than 200 nM.)
3,COc1cc(COC(=O)NC[C@H]2CC[C@@H](Nc3nc4c(c(N(C)C)n3)CCCC4)CC2)c([N+](=O)[O-])cc1OC [compound 1601],3 (Class 3 The value of percent of control at 10^−7 M was more than 60% or the value of IC50 was more than 200 nM.)
4,CN(C)c1nc(N[C@H]2CC[C@@H](CNC(=O)Oc3cccc(C(F)(F)F)c3)CC2)nc2c1CCCC2 [compound 1602],3 (Class 3 The value of percent of control at 10^−7 M was more than 60% or the value of IC50 was more than 200 nM.)
5,CN(C)c1nc(N[C@H]2CC[C@@H](CNC(=O)Oc3ccc(Br)cc3)CC2)nc2c1CCCC2 [compound 1603],3 (Class 3 The value of percent of control at 10^−7 M was more than 60% or the value of IC50 was more than 200 nM.)
6,COc1ccccc1OC(=O)NC[C@H]1CC[C@@H](Nc2nc3c(c(N(C)C)n2)CCCC3)CC1 [compound 1604],3 (Class 3 The value of percent of control at 10^−7 M was more than 60% or the value of IC50 was more than 200 nM.)
7,COCCOC(=O)NC[C@H]1CC[C@@H](Nc2nc3c(c(N(C)C)n2)CCCC3)CC1 [compound 1605],3 (Class 3 The value of percent of control at 10^−7 M was more than 60% or the value of IC50 was more than 200 nM.)
8,CCCCCCCCOC(=O)NC[C@H]1CC[C@@H](Nc2nc3c(c(N(C)C)n2)CCCC3)CC1 [compound 1606],3 (Class 3 The value of percent of control at 10^−7 M was more than 60% or the value of IC50 was more than 200 nM.)
9,CCOC(=O)NC[C@H]1CC[C@@H](Nc2nc3c(c(N(C)C)n2)CCCC3)CC1 [compound 1607],3 (Class 3 The value of percent of control at 10^−7 M was more than 60% or the value of IC50 was more than 200 nM.)
10,CN(C)c1nc(NC2CCC(CNC(=O)OCc3ccc([N+](=O)[O-])cc3)CC2)nc2c1CCCC2 (centres unmarked) [compound 1608],3 (Class 3 The value of percent of control at 10^−7 M was more than 60% or the value of IC50 was more than 200 nM.)
11,CN(C)c1nc(N[C@H]2CC[C@@H](CNC(=O)Oc3ccc4ccccc4c3)CC2)nc2c1CCCC2 [compound 1609],3 (Class 3 The value of percent of control at 10^−7 M was more than 60% or the value of IC50 was more than 200 nM.)
12,C=CCOC(=O)NC[C@H]1CC[C@@H](Nc2nc3c(c(N(C)C)n2)CCCC3)CC1 [compound 1610],3 (Class 3 The value of percent of control at 10^−7 M was more than 60% or the value of IC50 was more than 200 nM.)
13,CN(C)c1nc(NC2CCC(CNC(=O)OCc3ccccc3)CC2)nc2c1CCCC2 (centres unmarked) [compound 1611],3 (Class 3 The value of percent of control at 10^−7 M was more than 60% or the value of IC50 was more than 200 nM.)
14,CN(C)c1nc(N[C@H]2CC[C@@H](CNC(=O)Oc3ccccc3)CC2)nc2c1CCCC2 [compound 1612],3 (Class 3 The value of percent of control at 10^−7 M was more than 60% or the value of IC50 was more than 200 nM.)
15,CC(C)[C@@H]1CC[C@@H](C)CC1OC(=O)NC[C@H]1CC[C@@H](Nc2nc3c(c(N(C)C)n2)CCCC3)CC1 (some centres unmarked) [compound 1613],3 (Class 3 The value of percent of control at 10^−7 M was more than 60% or the value of IC50 was more than 200 nM.)
16,Cc1ccc(OC(=O)NC[C@H]2CC[C@@H](Nc3nc4c(c(N(C)C)n3)CCCC4)CC2)cc1 [compound 1614],3 (Class 3 The value of percent of control at 10^−7 M was more than 60% or the value of IC50 was more than 200 nM.)
17,COC(=O)NC[C@H]1CC[C@@H](Nc2nc3c(c(N(C)C)n2)CCCC3)CC1 [compound 1615],3 (Class 3 The value of percent of control at 10^−7 M was more than 60% or the value of IC50 was more than 200 nM.)
